The text below walks through data of patent US6432692B1, “Sensitive bioassay for detecting agonists of the aryl hydrocarbon receptor” (Wisconsin Alumni Research Foundation, priority 1999, dated 2002).

Assay [1] concerns GR-LexA chimera. The assay is described as follows: GR-LexA chimera β-galactosidase reporter dose-response in yeast strain L40. Format: cell-based. Here is the method: Pharmacology in yeast: AHR dose-response curves were performed in the S. cerevisiae strain L40 as described previously (Carver et al., 1994, supra). Two days after plasmid transformation, the colonies were replica plated on media with various concentrations of βNF spread on the surface. The replica plates were then incubated for two days at 30° C. For each dose of βNF, three colonies were suspended in 100 μl of Z-buffer (60 mM Na2HPO4, 40 mM NaH2PO4, 10 mM KCl, 1 MM MgSO4, 35 mM 2-mercaptoethanol) and cell density was estimated by reading the A600. Twenty microliters of the remaining cell suspension was added to 130 μl Z-buffer, 25 μl 0.1%SDS (w/v), 25 μl CHCl3 and disrupted at high speed for 10 sec. Thirty microliters of a 4 mg/ml ONPG solution was added and the mixture incubated for 2-5 min at 30° C. The reaction was stopped by adding 75 μl of 1M NaCO3, the cell debris removed by centrifugation and the A420 was determined. Beta-galactosidase units were determined using the following formula (A420/(A600 of 1/10 dilution of cells×volume of culture×time of incubation))×1,000. […]
Next, the specificity of ARA3 for the AHR signaling pathway in yeast was examined. […] In this system, GR is expressed as a LexA fusion protein in which the LexA binding domain replaces the GR DNA binding domain.

Assay [2] has as its system AHR. The conditions noted are these: mouse hepatoma cells overexpressing ARA9; cited from earlier work.
The target of assay [3] is T1, LexA-AHR chimera (Mus musculus, UniProt P30561).
T1 construct: expressed in transfected cells; host or cells: Saccharomyces cerevisiae strain L40; the other entry of the earlier key: lexA (P0A7C2, LexA repressor)
T1 sequence (P30561 with tags, fused parts or gaps): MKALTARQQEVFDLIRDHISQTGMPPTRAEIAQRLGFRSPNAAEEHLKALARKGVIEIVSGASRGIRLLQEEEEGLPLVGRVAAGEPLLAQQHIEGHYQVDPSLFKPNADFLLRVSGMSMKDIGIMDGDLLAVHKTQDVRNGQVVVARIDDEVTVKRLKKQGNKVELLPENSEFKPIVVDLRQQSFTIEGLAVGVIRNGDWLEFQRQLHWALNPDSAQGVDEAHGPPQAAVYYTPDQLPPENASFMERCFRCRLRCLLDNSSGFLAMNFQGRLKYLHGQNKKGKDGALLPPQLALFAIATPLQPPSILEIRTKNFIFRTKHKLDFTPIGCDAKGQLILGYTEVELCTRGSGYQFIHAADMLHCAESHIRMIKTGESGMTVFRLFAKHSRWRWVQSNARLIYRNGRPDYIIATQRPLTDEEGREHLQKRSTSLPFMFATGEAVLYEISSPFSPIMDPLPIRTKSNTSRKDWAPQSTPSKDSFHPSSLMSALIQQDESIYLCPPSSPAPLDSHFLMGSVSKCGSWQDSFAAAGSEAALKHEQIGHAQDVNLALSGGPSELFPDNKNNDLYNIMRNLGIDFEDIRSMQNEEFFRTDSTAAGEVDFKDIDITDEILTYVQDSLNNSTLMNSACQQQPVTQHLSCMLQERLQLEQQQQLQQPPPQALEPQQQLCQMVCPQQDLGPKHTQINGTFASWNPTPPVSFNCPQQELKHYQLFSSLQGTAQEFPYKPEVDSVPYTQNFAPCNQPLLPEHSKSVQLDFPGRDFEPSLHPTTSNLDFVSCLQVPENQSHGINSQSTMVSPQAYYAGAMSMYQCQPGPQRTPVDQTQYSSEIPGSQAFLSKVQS
T1 sequence (P15108 whole entry partner): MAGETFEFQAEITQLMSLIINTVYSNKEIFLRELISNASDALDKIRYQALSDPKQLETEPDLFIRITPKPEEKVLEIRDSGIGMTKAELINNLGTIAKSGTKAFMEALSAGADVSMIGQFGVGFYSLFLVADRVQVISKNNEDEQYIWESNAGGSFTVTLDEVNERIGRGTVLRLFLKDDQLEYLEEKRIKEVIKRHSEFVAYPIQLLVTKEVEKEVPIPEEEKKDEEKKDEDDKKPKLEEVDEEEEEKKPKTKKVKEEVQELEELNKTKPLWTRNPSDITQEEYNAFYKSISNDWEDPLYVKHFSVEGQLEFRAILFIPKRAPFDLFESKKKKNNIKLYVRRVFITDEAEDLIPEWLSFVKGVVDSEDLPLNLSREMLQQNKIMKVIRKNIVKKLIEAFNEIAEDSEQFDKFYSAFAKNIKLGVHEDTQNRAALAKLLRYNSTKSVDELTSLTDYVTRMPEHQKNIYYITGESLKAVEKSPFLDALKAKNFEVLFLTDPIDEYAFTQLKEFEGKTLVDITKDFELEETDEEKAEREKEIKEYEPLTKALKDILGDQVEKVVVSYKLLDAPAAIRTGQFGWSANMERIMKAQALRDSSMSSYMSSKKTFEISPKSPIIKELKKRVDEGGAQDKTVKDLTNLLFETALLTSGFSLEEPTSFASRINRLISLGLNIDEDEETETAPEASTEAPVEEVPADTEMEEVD
Nature of the assay: LexA-AHR chimera / LexA-operator β-galactosidase reporter dose-response in yeast strain L40. Format: cell-based. The protocol: Pharmacology in yeast: AHR dose-response curves were performed in the S. cerevisiae strain L40 as described previously (Carver et al., 1994, supra). Two days after plasmid transformation, the colonies were replica plated on media with various concentrations of βNF spread on the surface. The replica plates were then incubated for two days at 30° C. For each dose of βNF, three colonies were suspended in 100 μl of Z-buffer (60 mM Na2HPO4, 40 mM NaH2PO4, 10 mM KCl, 1 MM MgSO4, 35 mM 2-mercaptoethanol) and cell density was estimated by reading the A600. Twenty microliters of the remaining cell suspension was added to 130 μl Z-buffer, 25 μl 0.1%SDS (w/v), 25 μl CHCl3 and disrupted at high speed for 10 sec. Thirty microliters of a 4 mg/ml ONPG solution was added and the mixture incubated for 2-5 min at 30° C. The reaction was stopped by adding 75 μl of 1M NaCO3, the cell debris removed by centrifugation and the A420 was determined. Beta-galactosidase units were determined using the following formula (A420/(A600 of 1/10 dilution of cells×volume of culture×time of incubation))×1,000. To examine expression levels of FKBP52 and ARA9 in yeast, we performed western blot analysis on cell extracts as described previously (Hogenesch et al., J. Biol. Chem. 272: 8581-8593, 1997).
ARA9 enhances ligand responsiveness of AHR: Given the sequence similarities between ARA9 and FKBP52, we asked if either protein could influence AHR signaling in vivo. To this end, we employed a LexA-AHR chimera and a LexA-operator-driven β-galactosidase reporter gene in the yeast S. cerevisiae (Carver et al., 1994, supra). Beta-napthoflavone dose-response curves were constructed for the LexA-AHR in the presence and absence of ARA9 (FIG. 5).
ARA3 was a candidate for a novel regulator of AHR signaling because of its ligand-dependent association with AHR in the two-hybrid screen. The influence of ARA3 on AHR signaling was investigated to determine modifier status. To accomplish this, an ARA3 cDNA (lacking the heterologous TAD from the two-hybrid clone, TAD-NΔ113ARA3) was expressed with LexA-NΔ166AHR in the L40 strain of yeast with increasing concentrations of β-NF.

For `C[C@]12CC[C@H]3[C@@H](CCC4=CC(=O)CC[C@@]43C)[C@@H]1CC[C@@H]2C(=O)CO` [deoxycorticosterone], the “alteration of signaling profile of GR by ARA3” value in assay [1] (co-expression of ARA3 with NlxC-GR) was “did not alter the signaling profile”. In addition, the “alteration of response of GR-LexA chimera by ARA9 or FKBP52” value in assay [1] (co-expression of ARA9 or FKBP52) is given as “nor could either factor alter the response”.

Consider `Clc1cc2c(cc1Cl)Oc1cc(Cl)c(Cl)cc1O2` [TCDD, 2,3,7,8-tetrachlorodibenzo-p-dioxin], for which, in assay [2], the “increase of response of the system on overexpression of ARA9” value is 2-3 fold.

In the case of `O=c1cc(-c2ccccc2)oc2ccc3ccccc3c12` [βNF, Beta-napthoflavone], the “increase of maximal response of AHR by ARA3” value in assay [3] (co-expression of ARA3 (NΔ113ARA3) with LexA-NΔ166AHR) was “four-fold”. For the same molecule, the “increase of maximal response in the presence of ARA9” value in assay [3] (co-expression of ARA9 versus absence) was “approximately 2.5 fold”. Moreover, the “decrease of EC50 when ARA9 was present” value in assay [3] (co-expression of ARA9 versus absence, β-galactosidase, ONPG assay) is “approximately 5 fold”. Further, the “shift in AHR dose-response elicited by FKBP52” value in assay [3] (co-expression of FKBP52) is given as “could not be elicited”. Also, the “shift of dose-response curve by ARA3” value in assay [3] (co-expression of NΔ113ARA3 with LexA-NΔ166AHR) is on record as “shifted the curve to the left”.
